Like-named read-outs stand apart in the source and are kept apart here.
Target: T1, human AR (Homo sapiens, UniProt P10275)
T1 construct: expressed in transfected cells; host or cells: COS-1 cells
T1 sequence (P10275 1-920): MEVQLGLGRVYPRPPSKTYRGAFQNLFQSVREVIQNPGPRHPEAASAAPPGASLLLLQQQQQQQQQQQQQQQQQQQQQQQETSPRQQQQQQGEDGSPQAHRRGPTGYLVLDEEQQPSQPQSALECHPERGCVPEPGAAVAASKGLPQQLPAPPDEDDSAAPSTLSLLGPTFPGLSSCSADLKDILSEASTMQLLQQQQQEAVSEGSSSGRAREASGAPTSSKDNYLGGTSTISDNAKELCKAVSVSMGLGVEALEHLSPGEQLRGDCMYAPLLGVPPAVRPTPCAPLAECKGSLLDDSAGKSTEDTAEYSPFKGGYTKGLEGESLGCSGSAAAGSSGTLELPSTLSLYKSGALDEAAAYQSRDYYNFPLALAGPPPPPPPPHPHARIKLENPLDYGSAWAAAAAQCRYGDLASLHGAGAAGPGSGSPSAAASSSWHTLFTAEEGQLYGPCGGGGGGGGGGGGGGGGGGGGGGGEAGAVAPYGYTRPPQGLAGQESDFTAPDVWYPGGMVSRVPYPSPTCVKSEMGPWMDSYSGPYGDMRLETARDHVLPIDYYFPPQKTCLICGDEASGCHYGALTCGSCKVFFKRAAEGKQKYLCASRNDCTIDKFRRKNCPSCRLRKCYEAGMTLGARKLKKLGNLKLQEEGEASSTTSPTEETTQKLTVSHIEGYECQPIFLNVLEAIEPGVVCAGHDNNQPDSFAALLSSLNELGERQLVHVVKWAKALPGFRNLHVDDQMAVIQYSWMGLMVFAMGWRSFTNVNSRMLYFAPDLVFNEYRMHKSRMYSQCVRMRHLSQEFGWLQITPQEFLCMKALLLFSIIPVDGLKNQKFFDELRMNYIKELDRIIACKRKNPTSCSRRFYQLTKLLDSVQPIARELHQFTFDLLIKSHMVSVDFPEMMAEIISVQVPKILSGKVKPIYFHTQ
Experiment: IR Binding Assay: whole cell competitive binding of test compounds against 3H-DHT in COS-1 cells transfected with pRShAR
Description: For the whole cell binding assay, COS-1 cells in 96-well microtiter plates including DMEM-10% FBS were transfected as described above with the following plasmid DNA: pRShAR (2 ng/well), pRS-β-Gal (50 ng/well) and pGEM (48 ng/well). Six hours after transfection, media was removed, the cells were washed with PBS and fresh media was added. The next day, the media was changed to DMEM-serum free to remove any endogenous ligand that might be complexed with the receptor in the cells.
After 24 hours in serum-free media, either a saturation analysis to determine the Kd for tritiated dihydrotestosterone (^3H-DHT) on human AR or a competitive binding assay to evaluate the ability of test compounds to compete with ^3H-DHT for AR was performed. […] For the competitive binding assay, media including 1 nM ^3H-DHT and test compounds in concentrations ranging from 10^−10 to 10^−6 M were added to the cells. Three replicates were used for each sample. After three hours at 37° C., an aliquot of the total binding media at each concentration of ^3H-DHT was removed to estimate the amount of free ^3H-DHT. The remaining media was removed, the cells were washed three times with PBS to remove unbound ligand, and cells were lysed with a Triton X-100-based buffer. The lysates were assayed for amount of bound ^3H-DHT and β-Gal activity using a scintillation counter or spectrophotometer, respectively.
For the saturation analyses, the difference between the total binding and the nonspecific binding, normalized by the β-Gal rate, was defined as specific binding. The specific binding was evaluated by Scatchard analysis to determine the Kd for ^3H-DHT. See e.g., D. Rodbard, “Mathematics and statistics of ligand assays: an illustrated guide” In: J. Langon and J. J. Clapp, eds., Ligand Assay, Masson Publishing U.S.A., Inc., New York, pp. 45-99, (1981), the disclosure of which is herein incorporated by reference. For the competition studies, the data was plotted as the amount of ^3H-DHT (% of control in the absence of test compound) remaining over the range of the dose-response curve for a given compound. […] The Ki values were determined by application of the Cheng-Prusoff equation to the IC50 values, where:
[formula] After correcting for non-specific binding, IC50 values were determined. […] The IC50 value was determined graphically from a log-logit plot of the data. The Ki values were determined by application of the Cheng-Prusoff equation to the IC50 values, the labeled ligand concentration and the Kd of the labeled ligand. see e.g., Cheng, Y. C. and Prusoff, W. H. Biochem. Pharmacol. 22:3099 (1973).

[1] = competition with 1 nM 3H-DHT, transfected COS-1 cells, 3 h at 37° C., Cheng-Prusoff from IC50, read-out: Ki

| SMILES | Ki [nM] | Ki [1] [nM] |
| --- | --- | --- |
| CCC1C(C)c2c(ccc3[nH]c(=O)cc(Cl)c23)N1CCC(F)(F)F (racemic) [Compound 170, (±)-9-Chloro-2-ethyl-1-methyl-3-(3,3,3-trifluoropropyl)-1,2,3,6-tetrahydro-pyrrolo[3,2-f]quinolin-7-one] | < 5 | – |
| Cc1c(-c2ccccc2F)n(CC(F)(F)F)c2ccc3[nH]c(=O)cc(Cl)c3c12 [Compound 199, 9-Chloro-2-(2-fluorophenyl)-1-methyl-3-(2,2,2-trifluoroethyl)-3,6-dihydro-pyrrolo[3,2-f]quinolin-7-one] | < 5 | – |
| CC1c2c(ccc3[nH]c(=O)cc(Cl)c23)N(C)C1C (racemic) [Compound 136, (±)-9-Chloro-1,2,3-trimethyl-1,2,3,6-tetrahydro-pyrrolo[3,2-f]quinolin-7-one] | > 10 | – |
| CCC1C(C)c2c(ccc3[nH]c(=O)cc(Cl)c23)N1CC(F)(F)Cl (racemic) [Compound 176, (±)-9-Chloro-3-(2-Chloro-2,2-difluoroethyl)-2-ethyl-1-methyl-1,2,3,6-tetrahydro-pyrrolo[3,2-f]quinolin-7-one] | < 5 | – |
| CCc1[nH]c2ccc3[nH]c(=O)cc(Cl)c3c2c1C [Compound 106, 9-Chloro-2-ethyl-1-methyl-3,6-dihydro-pyrrolo[3,2-f]quinolin-7-one] | 5 to 10 | – |
| COc1ccc(-c2[nH]c3ccc4[nH]c(=O)cc(Cl)c4c3c2C)cc1 [Compound 115, 9-Chloro-2-(4-methoxy-phenyl)-1-methyl-3,6-dihydro-pyrrolo[3,2-f]quinolin-7-one] | – | > 10 |
| Cc1c(-c2cccc(C(F)(F)F)c2)n(CC(F)(F)F)c2ccc3[nH]c(=O)cc(Cl)c3c12 [Compound 201, 9-Chloro-1-methyl-2-(3-trifluoromethylphenyl)-3-(2,2,2-trifluoroethyl)-3,6-dihydro-pyrrolo[3,2-f]-quinolin-7-one] | > 10 | – |
| CCc1c(C)n(CC(F)(F)F)c2ccc3[nH]c(=O)cc(Cl)c3c12 [Compound 185, 9-Chloro-1-ethyl-2-methyl-3-(2,2,2-trifluoroethyl)-3,6-dihydro-pyrrolo[3,2-f]quinolin-7-one] | < 5 | – |
| CC1c2c(ccc3[nH]c(=O)cc(Cl)c23)N(CC(F)(F)C(F)(F)C(F)(F)F)C1C (racemic) [Compound 168, (±)-9-Chloro-1,2-dimethyl-3-(2,2,3,3,4,4,4-heptafluorobutyl)-1,2,3,6-tetrahydro-pyrrolo[3,2-f]quinolin-7-one] | > 10 | – |
| Cc1c(C(F)(F)F)n(CC(F)(F)F)c2ccc3[nH]c(=O)cc(C(F)(F)F)c3c12 [Compound 234, 1-Methyl-3-(2,2,2-trifluoro-ethyl)-2,9-bis-trifluoromethyl-3,6-dihydro-pyrrolo[3,2-f]-quinolin-7-one] | < 5 | – |
| Cc1ccc(-c2c(C)c3c4c(Cl)cc(=O)[nH]c4ccc3n2CC(F)(F)F)o1 [Compound 256, 9-Chloro-1-methyl-2-(5-methyl-2-furyl)-3-(2,2,2-trifluoroethyl)-3,6-dihydro-pyrrolo[3,2-f]-quinolin-7-one] | – | < 5 |
| CC1c2c(ccc3[nH]c(=O)cc(Cl)c23)N(CC(F)(F)F)C1c1ccc(Cl)cc1 (racemic) [Compound 152, (±)-9-Chloro-2-(4-chlorophenyl)-1-methyl-3-(2,2,2-trifluoroethyl)-1,2,3,6-tetrahydro-pyrrolo[3,2-f]quinolin-7-one] | > 10 | – |
| Cc1c(-c2cccnc2)n(C[C@H](O)C(F)(F)F)c2ccc3[nH]c(=O)cc(Cl)c3c12 [Compound 274, (S)-9-Chloro-1-methyl-2-(3-pyridyl)-3-(3,3,3-trifluoro-2-hydroxy-propyl)-3,6-dihydro-pyrrolo[3,2-f]quinolin-7-one] | > 10 | – |
| CCc1c(C)c2c3c(Cl)cc(=O)[nH]c3ccc2n1CC(O)CO (stereo not shown) [Compound 297, 9-Chloro-3-(2,3-dihydroxypropyl)-2-ethyl-1-methyl-3,6-dihydro-pyrrolo[3,2-f]-quinolin-7-one] | > 10 | – |
| Cc1c(-c2ccco2)n(CC(F)(F)C(F)(F)F)c2ccc3[nH]c(=O)cc(Cl)c3c12 [Compound 261, 9-Chloro-1-methyl-2-(2-furyl)-3-(2,2,3,3,3-pentafluoropropyl)-3,6-dihydro-pyrrolo[3,2-f]quinolin-7-one] | < 5 | – |
| Cc1c(C)n(CC(F)(F)C(F)(F)C(F)(F)F)c2ccc3[nH]c(=O)cc(Cl)c3c12 [Compound 214, 9-Chloro-1,2-dimethyl-3-(2,2,3,3,4,4,4-heptafluorobutyl)-3,6-dihydro-pyrrolo[3,2-f]-quinolin-7-one] | > 10 | – |
| CCc1c(C)[nH]c2ccc3[nH]c(=O)cc(Cl)c3c12 [Compound 109, 9-Chloro-2-methyl-1-ethyl-3,6-dihydro-pyrrolo[3,2-f]quinolin-7-one] | > 10 | – |
| Cc1c(-c2nccs2)n(CC(F)(F)F)c2ccc3[nH]c(=O)cc(Cl)c3c12 [Compound 252, 9-Chloro-1-methyl-2-(1,3-thiazol-2-yl)-3-(2,2,2-trifluoroethyl)-3,6-dihydro-pyrrolo[3,2-f]-quinolin-7-one] | < 5 | – |
| Cc1c(C)n(CCCNCCO)c2ccc3[nH]c(=O)cc(C(F)(F)F)c3c12 [Compound 289, 1,2-Dimethyl-3-[3-(2-hydroxy-ethylamino)-propyl]-9-trifluoromethyl-3,6-dihydro-pyrrolo[3,2-f]quinolin-7-one] | > 10 | – |
| CCC1c2c(ccc3[nH]c(=O)cc(Cl)c23)N(CC(F)(F)F)C1c1ccccc1 (racemic) [Compound 160, (±)-9-Chloro-1-ethyl-2-phenyl-3-(2,2,2-trifluoroethyl)-1,2,3,6-tetrahydro-pyrrolo[3,2-f]-quinolin-7-one] | > 10 | – |
| Cc1c(-c2ccco2)n(C[C@H](O)C(F)(F)F)c2ccc3[nH]c(=O)cc(Cl)c3c12 [Compound 277, (S)-9-Chloro-2-(2-furyl)-1-methyl-3-(3,3,3-trifluoro-2-hydroxy-propyl)-3,6-dihydro-pyrrolo[3,2-f]quinolin-7-one] | < 5 | – |
| CC1c2c(ccc3[nH]c(=O)cc(Cl)c23)N(CC(F)(F)F)C1c1ccc(C(F)(F)F)cc1 (racemic) [Compound 147, (±)-9-Chloro-1-methyl-2-(4-trifluoromethyl-phenyl)-3-(2,2,2-trifluoroethyl)-1,2,3,6-tetrahydro-pyrrolo[3,2-f]quinolin-7-one] | > 10 | – |
| O=c1cc(Cl)c2c(ccc3[nH]c4c(c32)CCCC4)[nH]1 [Compound 113, 9-Chloro-1,2-tetramethylene-3,6-dihydro-pyrrolo[3,2-f]quinolin-7-one] | > 10 | – |
| CC1c2c(ccc3[nH]c(=O)cc(Cl)c23)N(CC(F)F)C1C (racemic) [Compound 143, (±)-9-Chloro-3-(2,2-difluoroethyl)-1,2-dimethyl-1,2,3,6-tetrahydro-pyrrolo[3,2-f]quinolin-7-one] | 5 to 10 | – |
| O=c1cc(C(F)(F)F)c2c(ccc3c2c2c(n3CC(O)C(F)(F)F)CCC2)[nH]1 (racemic) [Compound 246, (±)-3-(3,3,3-Trifluoro-2-hydroxy-propyl)-9-trifluoromethyl-1,2-trimethylene-3,6-dihydro-pyrrolo[3,2-f]quinolin-7-one] | 5 to 10 | – |

— patent US8580811B2 (Ligand Pharmaceuticals Incorporated, priority 2005, dated 2013)
